Here are results for 32 molecules from patent US9663473B2 (Actelion Pharmaceuticals Ltd, priority 2013, dated 2017).

Structures can show the parent of a compound that is named as a salt.

For the experiment, the target named is T1, recombinant human ALX receptor (Homo sapiens, UniProt P25090).
T1 construct: expressed in transfected cells; host or cells: HEK293 (HEK293-hALXR-Gα16)
T1 sequence (P25090 1-351): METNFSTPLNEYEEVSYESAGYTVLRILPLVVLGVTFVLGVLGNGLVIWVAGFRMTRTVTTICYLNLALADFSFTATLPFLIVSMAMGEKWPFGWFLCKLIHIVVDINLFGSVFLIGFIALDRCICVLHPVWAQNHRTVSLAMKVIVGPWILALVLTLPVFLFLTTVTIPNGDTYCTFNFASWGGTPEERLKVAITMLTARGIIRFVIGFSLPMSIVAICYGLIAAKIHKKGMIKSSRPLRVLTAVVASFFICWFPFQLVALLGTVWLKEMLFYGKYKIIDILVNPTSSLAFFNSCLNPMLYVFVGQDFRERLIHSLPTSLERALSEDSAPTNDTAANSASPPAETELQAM
As to the kind of experiment: Intracellular calcium measurements (FLIPR), ALX receptor agonistic activity. As to conditions: HEK293-hALXR-Gα16 cells, Fluo-4 calcium signal, normalized to WKYMVm 10 nM. In kind it is cell-based. A digest of the protocol: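 HEK293 cells co-expressing human ALX receptor and Gα16 were loaded with 1 μM Fluo-4 AM for 60 min at 37° C., then exposed to serially diluted compounds on FLIPR Tetra. Peak fluorescence above baseline (ex 488/em 540 nm) was normalized to 10 nM WKYMVm as high control.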
`COc1ccc(C[C@@H](NC(=O)N[C@H]2CC[C@@](C)(O)CC2)c2nc3ccccc3[nH]2)cc1` [Example 189, 1-((R)-1-(1H-Benzo[d]imidazol-2-yl)-2-(4-methoxyphenyl)ethyl)-3-(cis-4-hydroxy-4-methylcyclohexyl)urea]: the EC50 amounted to 19 nM.

Consider `COc1ccc(CC(NC(=O)NC2CCCC2)c2nc3ccccc3[nH]2)cc1F` (centres unmarked) [Example 175, 1-(1-(1H-Benzo[d]imidazol-2-yl)-2-(3-fluoro-4-methoxyphenyl)ethyl)-3-cyclopentylurea], for which the EC50 amounted to 209 nM.

As for `COC(=O)N1CCC(NC(=O)N[C@H](Cc2ccc(OC)cc2)c2nc3ccccc3[nH]2)CC1` [Example 139, (R)-Methyl 4-(3-(1-(1H-benzo[d]imidazol-2-yl)-2-(4-methoxyphenyl)ethyl)ureido)piperidine-1-carboxylate], the concentration giving a half-maximal response (EC50) turned out to be 414 nM.

Take `COc1ccc(C[C@@H](NC(=O)NC2CCCN(C)C2)c2nc3ccccc3[nH]2)cc1` (stereo partly drawn) [Example 117, 1-((R)-1-(1H-Benzo[d]imidazol-2-yl)-2-(4-methoxyphenyl)ethyl)-3-(1-methylpiperidin-3-yl)urea]: the EC50 is 62 nM.

As to `COc1ccc(C[C@@H](NC(=O)N[C@@H]2CCC[C@H]2O)c2nc3ccccc3[nH]2)cc1` [Example 113, 1-((R)-1-(1H-Benzo[d]imidazol-2-yl)-2-(4-methoxyphenyl)ethyl)-3-((1R,2R)-2-hydroxycyclopentyl)urea], the EC50 was 20 nM.

On to `COc1ccc(CC(NC(=O)NCc2nc3ccccc3s2)c2nc3ccccc3[nH]2)cc1` (centres unmarked) [Example 38, 1-(1-(1H-Benzo[d]imidazol-2-yl)-2-(4-methoxyphenyl)ethyl)-3-(benzo[d]thiazol-2-ylmethyl)urea], for which the EC50 was determined as 198 nM.

Turning to `COc1ccc(C[C@@H](NC(=O)NC23CCN(CC2)CC3)c2nc3ccccc3[nH]2)cc1` [Example 170, (R)-1-(1-(1H-Benzo[d]imidazol-2-yl)-2-(4-methoxyphenyl)ethyl)-3-(quinuclidin-4-yl)urea], the EC50 stood at 76 nM.

In the case of `COc1ccc(C[C@@H](NC(=O)NC2CCNC2)c2nc3ccccc3[nH]2)cc1` (stereo partly drawn) [Example 100, 1-((R)-1-(1H-Benzo[d]imidazol-2-yl)-2-(4-methoxyphenyl)ethyl)-3-(pyrrolidin-3-yl)urea], the EC50 is 87 nM.

As to `COc1ccc(C[C@@H](NC(=O)NCc2cccnc2COC(C)C(F)(F)F)c2nc3ccccc3[nH]2)cc1` (stereo partly drawn) [Example 216, 1-((R)-1-(1H-Benzo[d]imidazol-2-yl)-2-(4-methoxyphenyl)ethyl)-3-((2-(((1,1,1-trifluoropropan-2-yl)oxy)methyl)pyridin-3-yl)methyl)urea], the EC50 was determined as 2.1 nM.

For `COc1ccc(C[C@@H](NC(=O)N[C@H]2CC[C@@H](O)CC2)c2nc3ccccc3[nH]2)cc1` [Example 183, 1-((R)-1-(1H-Benzo[d]imidazol-2-yl)-2-(4-methoxyphenyl)ethyl)-3-(cis-4-hydroxycyclohexyl)urea], the concentration for a half-maximal effect (EC50) turned out to be 58 nM.

Turning to `COc1cc(F)c(CC(NC(=O)NC23CCC(O)(CC2)CC3)c2nc3ccc(F)cc3[nH]2)c(F)c1` (single isomer, unassigned; ent-1) [Example 367, 1-(2-(2,6-Difluoro-4-methoxyphenyl)-1-(6-fluoro-1H-benzo[d]imidazol-2-yl)ethyl)-3-(4-hydroxybicyclo[2.2.2]octan-1-yl)urea (ent-1)], the EC50 was found to be 0.1 nM.

In the case of `COc1ccc(C[C@@H](NC(=O)NC2CCCCC2)c2nc3ccccc3[nH]2)cc1` [Example 17, (R)-1-(1-(1H-Benzo[d]imidazol-2-yl)-2-(4-methoxyphenyl)ethyl)-3-cyclohexylurea hydrochloride], the EC50 stood at 47 nM.

Turning to `COc1ccc(CC(NC(=O)NC2CCC(CCO)CC2)c2nc3ccccc3[nH]2)cc1` (centres unmarked) [Example 107, 1-(1-(1H-Benzo[d]imidazol-2-yl)-2-(4-methoxyphenyl)ethyl)-3-(4-(2-hydroxyethyl)cyclohexyl)urea], the half-maximal effective concentration (EC50) came to 6 nM.

Consider `COc1ccc(C[C@@H](NC(=O)N2CCCC2)c2nc3ccccc3[nH]2)cc1` [Example 91, (R)—N-(1-(1H-Benzo[d]imidazol-2-yl)-2-(4-methoxyphenyl)ethyl)pyrrolidine-1-carboxamide], for which the EC50 came to 561 nM.

For `COc1ccc(C[C@@H](NC(=O)NC2CCCCC2C)c2nc3ccccc3[nH]2)cc1` (stereo partly drawn) [Example 23, 1-((R)-1-(1H-Benzo[d]imidazol-2-yl)-2-(4-methoxyphenyl)ethyl)-3-(2-methylcyclohexyl)urea], the EC50 is 124 nM.

With `COc1ccc(C[C@@H](NC(=O)NC(CN2CCOCC2)c2ccccc2)c2nc3ccccc3[nH]2)cc1` (stereo partly drawn) [Example 214, 1-((R)-1-(1H-Benzo[d]imidazol-2-yl)-2-(4-methoxyphenyl)ethyl)-3-(2-morpholino-1-phenylethyl)urea], the concentration for a half-maximal effect (EC50) stood at 28 nM.

For `COc1ccc(C[C@@H](NC(=O)N[C@H](C(N)=O)c2ccccc2)c2nc3ccccc3[nH]2)cc1` [Example 339, (S)-2-(3-((R)-1-(1H-Benzo[d]imidazol-2-yl)-2-(4-methoxyphenyl)ethyl)ureido)-2-phenylacetamide], the EC50 was determined as 39 nM.

As to `COc1ccc(C[C@@H](NC(=O)NCc2ncccc2C)c2nc3ccccc3[nH]2)cc1` [Example 287, (R)-1-(1-(1H-Benzo[d]imidazol-2-yl)-2-(4-methoxyphenyl)ethyl)-3-((3-methylpyridin-2-yl)methyl)urea], the 50% effective concentration (EC50) was 92 nM.

Take `COc1ccc(C[C@@H](NC(=O)N[C@@H](Cc2ccccc2)C(N)=O)c2nc3ccccc3[nH]2)cc1` [Example 208, (S)-2-(3-((R)-1-(1H-Benzo[d]imidazol-2-yl)-2-(4-methoxyphenyl)ethyl)ureido)-3-phenylpropanamide]: the 50% effective concentration (EC50) was found to be 21 nM.

Take `COc1ccc(C[C@@H](NC(=O)NC2CN3CCC2CC3)c2nc3ccccc3[nH]2)cc1` (stereo partly drawn) [Example 89, 1-((R)-1-(1H-Benzo[d]imidazol-2-yl)-2-(4-methoxyphenyl)ethyl)-3-(quinuclidin-3-yl)urea]: the EC50 is 15 nM.

As to `Cc1ccc(C[C@@H](NC(=O)N[C@H]2CC[C@H](O)CC2)c2nc3ccccc3[nH]2)cc1` [Example 191, 1-((R)-1-(1H-Benzo[d]imidazol-2-yl)-2-(p-tolyl)ethyl)-3-(trans-4-hydroxycyclohexyl)urea], the EC50 turned out to be 31 nM.

Take `COc1ccc(C[C@@H](NC(=O)N[C@H]2C[C@@H]2c2ccccc2)c2nc3ccccc3[nH]2)cc1` (relative stereo) [Example 16, 1-((R)-1-(1H-Benzo[d]imidazol-2-yl)-2-(4-methoxyphenyl)ethyl)-3-((1 S*,2R*)-2-phenylcyclopropyl)urea hydrochloride]: the EC50 stood at 112 nM.

As to `O=C(NC(Cc1ccc(OC(F)(F)F)cc1)c1nc2ccccc2[nH]1)NC1CN2CCC1CC2` (centres unmarked) [Example 141, 1-(1-(1H-Benzo[d]imidazol-2-yl)-2-(4-(trifluoromethoxy)phenyl)ethyl)-3-(quinuclidin-3-yl)urea], the EC50 was 834 nM.

Regarding `O=C(N[C@H](Cc1ccc(C(F)(F)F)cc1)c1nc2cc(F)ccc2[nH]1)N[C@H]1CC[C@H](O)CC1` [Example 265, 1-((R)-1-(5-Fluoro-1H-benzo[d]imidazol-2-yl)-2-(4-(trifluoromethyl)phenyl)ethyl)-3-(trans-4-hydroxycyclohexyl)urea], the EC50 was found to be 4.7 nM.

As for `COc1ccc(C[C@@H](NC(=O)N2CCC3CNCC32)c2nc3ccccc3[nH]2)cc1` (stereo partly drawn) [Example 127, N—((R)-1-(1H-Benzo[d]imidazol-2-yl)-2-(4-methoxyphenyl)ethyl)hexahydropyrrolo[3,4-b]pyrrole-1(2H)-carboxamide], the EC50 is 246 nM.

Consider `COc1ccc(CC(NC(=O)N[C@H](C)c2cccc(Cl)c2)c2nc3ccccc3[nH]2)cc1` (stereo partly drawn) [Example 41, 1-(1-(1H-Benzo[d]imidazol-2-yl)-2-(4-methoxyphenyl)ethyl)-3-((R)-1-(3-chlorophenyl)ethyl)urea], for which the EC50 is 776 nM.

As for `COc1ccc(C[C@@H](NC(=O)N[C@@H](C)c2cccc(Cl)c2)c2nc3ccccc3[nH]2)cc1` [Example 325, 1-((R)-1-(1H-Benzo[d]imidazol-2-yl)-2-(4-methoxyphenyl)ethyl)-3-((S)-1-(3-chlorophenyl)ethyl)urea], the EC50 was determined as 186 nM.

In the case of `COc1ccc(C[C@@H](NC(=O)N(CCO)C2CCCCC2)c2nc3ccccc3[nH]2)cc1` [Example 111, (R)-3-(1-(1H-Benzo[d]imidazol-2-yl)-2-(4-methoxyphenyl)ethyl)-1-cyclohexyl-1-(2-hydroxyethyl)urea], the EC50 turned out to be 142 nM.

Regarding `COc1ccc(CC(NC(=O)Nc2ccnn2-c2ccccn2)c2nc3ccccc3[nH]2)cc1` (centres unmarked) [Example 411, 1-(1-(1H-benzo[d]imidazol-2-yl)-2-(4-methoxyphenyl)ethyl)-3-(1-(pyridin-2-yl)-1H-pyrazol-5-yl)urea], the EC50 came out at 56 nM.

`COc1ccc(C[C@@H](NC(=O)N[C@H](CO)Cc2ccccc2)c2nc3ccccc3[nH]2)cc1` [Example 212, 1-((R)-1-(1H-Benzo[d]imidazol-2-yl)-2-(4-methoxyphenyl)ethyl)-3-((S)-1-hydroxy-3-phenylpropan-2-yl)urea]: the concentration for a half-maximal effect (EC50) amounted to 2.8 nM.

`COc1ccc(C[C@@H](NC(=O)NCc2ccccc2OC)c2nc3ccccc3[nH]2)cc1` [Example 137]: the EC50 amounted to 726 nM.

In the case of `COc1ccc(C[C@@H](NC(=O)NC2CCCN(CCF)C2)c2nc3ccccc3[nH]2)cc1` (stereo partly drawn) [Example 180, 1-((R)-1-(1H-Benzo[d]imidazol-2-yl)-2-(4-methoxyphenyl)ethyl)-3-(1-(2-fluoroethyl)piperidin-3-yl)urea], the EC50 amounted to 59 nM.
